The record followed here is publication PMC9369794 (Molecules, 2022).

A word on the melting point: it is the temperature, or range, at which the solid turns liquid.

Data set [1] is described as follows: Hydrodynamic diameter and colloidal stability of aggregates by dynamic light scattering. In kind it is physicochemical. The following applies: for mean size (hydrodynamic diameter) / zeta potential: 37 °C; for PDI: sd^2/mean size^2. Here is the method:
In contrary, all spectra gave a hypsochromic shift and loss of fine-structure when the DMSO solutions were diluted with PBS, which refers to the formation of H-type (card-pack) aggregates (Figures S1–S12). Since DMSO-containing aqueous systems are more suitable for biological studies, we examined these solution by dynamic light scattering (DLS) spectroscopy to gain more information about the particles. The concentrations of the examined solutions were the same as used in the ABTS/TEAC measurements (0.3125–5.00 μM, see next section).
Size determination of aggregates and the colloidal stability of the sample dispersions were determined by dynamic light scattering measurements, where the hydrodynamic diameter of particles, and zeta potential values were collected. The number-weighted size distribution indicated one main peak in each case, the polydispersity index (PDI) was calculated as sd^2/mean size^2. For the particle size analysis Malvern Zetasizer Nano S instrument and for the zeta potential determination Malvern Zetasizer Nano Z instrument were used (Malvern Panalytical Ltd., Great Malvern, Worcestershire, UK). The measurements were carried out in autocorrelation mode, and the following parameters were kept constant: scattering angle 173°, attenuator 11 and its factor 0.0146, measurement position 4.65 mm. The concentrations of sample dispersions were between 0.3125 and 5 µM. The dispersion medium was PBS. Each samples was examined after 6 min incubation period at 37 °C.

Data set [2] can be described thus: Study of aggregation by UV-Vis spectrophotometry. In kind it is physicochemical. As to conditions: for change of UV spectrum with increasing ratio of PBS: starting from THF solutions. The source says: It has been known for a long while that carotenoids or their derivatives can be prone to supramolecular organization in water or water-organic solvent mixtures. This behaviour is especially interesting because this higher organization can modulate or alter biological properties of carotenoids, as well [40]. A tendency to form supramolecular structures can be tested by recording the UV spectra in an organic solvent and increasing the ratio of water in the sample. […] We have some recent experience of such behaviour of carotenoid-flavonoid conjugates.
All of our adducts were tested with the method above using tetrahydrofurane (THF) or dimethylsulfoxide (DMSO) with increasing ratio of phosphate-buffered saline (PBS), which was the medium of the antioxidant measurements. […]
1. Study of Aggregation by UV-Vis Spectrophotometry
Starting from THF solutions: each conjugate was dissolved in freshly distilled THF and the solutions were diluted
either with THF or THF-PBS mixtures to obain final solutions of identical carotenoid concentration. […]
Figure S1. UV-spectra of 8’-apo-β-carotenol succinate ( 6) ( a) in THF and in THF-PBS mixtures ( 1:1 , 1:3); (b) in DMSO
Figure S2. UV-spectra of zeaxanthin bissuccinate ( 7) ( a) in THF and in THF-PBS mixtures ( 1:1 , 1:3); (b) in DMSO and
Figure S3. UV-spectra of zeaxanthin monosuccinate ( 11) ( a) in THF and in THF-PBS mixtures ( 1:1 , 1:3); (b) in DMSO […]

A further data set in a line: Water dispersibility. The format is physicochemical. The following applies: distilled water, sonication. The procedure:
About 2 mg of the examined substance was dispersed in 40 mL of distilled water and the suspension was sonicated for 2 min. The addition of water was continued with 10 mL portions, after each portion the mixture was sonicated for 2 min. This process was continued till a homogenous solution was observed by naked eye. Then, the solution was let to stand for an hour to inspect any precipitate formation, but no changes occurred in any of the cases.

Data set [3] is described as follows: TEAC assay using ABTS radical. As to conditions: 6 min, ratio of slopes to trolox (melatonin dissolved in EtOH); for TEAC from DMSO: stock in DMSO diluted with PBS pH 7.4, 37 °C; for TEAC from THF: stock in THF diluted with PBS pH 7.4, 37 °C. Here is the method: This method uses a redox reaction between ABTS^•+ radical cation and the examined antioxidants, which act as the reducing agents. […] As the carotenoids and the conjugates are poorly soluble in water, they were dissolved first either in small amounts of freshly distilled tetrahydrofuran (THF) or in dimethylsulfoxide (DMSO), and these stock solutions were diluted with phosphate-buffered saline (PBS) to the final nominal concentration.
The TEAC values were determined in isotonic phosphate buffer of pH 7.4. The buffer solution was made by dissolving 9.55 g of DPBS powder in distilled water to form 1L of solution (composition: 0.138 M NaCl, 0.0027 M KCl, 0.0081 M Na2HPO4, 0.0015 M KH2PO4). The assay was performed according to a literature process with slight modifications. The ABTS^•+ radical cation was produced by reacting 7 mM 2,2′-azino-bis(3-ethylbenzothiazoline-6-sulfonic acid) and 2.45 mM potassium persulfate in water. The stock ABTS^•+ solution was prepared 12–16 h before the experiments, and stored at room temperature in dark. The absorbance of the ABTS^•+ solution was set to 0.70 ± 0.05 at 734 nm by a ca. 100-fold dilution with phosphate-buffered saline (PBS). […] The stock solutions were diluted with PBS such that equal amounts of the diluted solutions were added to the ABTS^•+ reagent to obtain final antioxidants concentrations of 0.3125, 0.625, 1.25, 2.50, 3.75, 5 μM, respectively. In the blank (0 μM), the solutions of the antioxidants were substituted with THF or DMSO.
The antioxidants were incubated with ABTS^•+ solution at 37 °C for 6 min. During the reaction of ABTS^•+ with the antioxidants the absorbance of the solution decreases. The percentage inhibition of absorbance at 734 nm was calculated as (A0 − Aantioxidant)/A0, where A0 is the absorbance of the ABTS^•+ solution and Aantioxidant is the absorbance measured after the addition of the antioxidant. The determinations were carried out at each concentration in triplicate. The calculated values were plotted against the final concentration of the antioxidants. The slopes of the curves were compared with that for trolox, the TEAC value is the ratio of the slopes for the antioxidant and for trolox.

Data set [4] in a line: FRAP assay for the antioxidant capacity. Also on record: key to FRAP: slope of concentration-absorbance line divided by Trolox slope. The following applies: stock in THF, acetate buffer pH 3.0, 37 °C, 15 min; ratio of slopes to trolox (melatonin in EtOH). Here is the method:
In the FRAP method the antioxidant reduces Fe^3+ to Fe^2+ in an acidic medium. These experiments were performed in an acetate buffer of pH 3.0, the stock solutions of the examined antioxidants were prepared in THF. The antioxidant capacities were compared to that of Trolox as a standard, just like in the ABTS assays.
A modified literature process was used. The FRAP reagent should also be prepared freshly each day. 2,4,6-Tris(2-pyridyl)-s-triazin (TPTZ) was dissolved in a 200 mM HCl solution and diluted with water to get a final 40 mM HCl and 10 mM TPTZ concentration. For the preparation of the FRAP reagent 30 mL of 20 mM FeCl3 solution and 30 mL of 10 mM TPTZ solution were mixed, and 300 mL of 300 mM acetate buffer with pH 3.0 was added (a pH lower than usual was used to avoid the precipitation of the TPTZ). The FRAP reagent was incubated at 37 °C for 15 min. 150 μL of antioxidant dissolved in THF was mixed with 2.85 mL FRAP reagent solution, and incubated at 37 °C for 15 min in dark. Measurements were carried out at each antioxidant concentration (0, 7.5; 10; 12.5; 15; 17.5 μM final concentration) in triplicate. In the 0 μM solution the antioxidant solution was substituted with acetate buffer (pH 3.0). The FRAP was determined at 600 nm: the absorbance values were plotted as a function of concentration of the sample compounds and that of Trolox for the standard reference data. The FRAP values were calculated as in the ABTS assays, i.e., the slope of the concentration-absorbance lines for the carotenoid derivatives was divided by that for the trolox.

The mark [5] stands for this setting: 0.3125 μM in PBS from DMSO stock.
The mark [6] stands for this setting: 0.625 μM in PBS from DMSO stock.

Consider `CC1=C(/C=C/C(C)=C/C=C/C(C)=C/C=C/C=C(C)/C=C/C=C(C)/C=C/C(=O)[C@]2(C)C[C@@H](OC(=O)CCC(=O)O)CC2(C)C)C(C)(C)C[C@H](OC(=O)CCC(=O)O)C1` [Compound 9, Capsanthin bissuccinate], for which the “mean size (hydrodynamic diameter)” value in data set [1] (setting [5]) is on record as 241.5 nm; in data set [1] (setting [6]), 10.71 nm; in data set [1] (1.25 μM in PBS from DMSO stock), 28.78 nm; in data set [1] (5 μM in PBS from DMSO stock) it was 19.31 nm. Also, the zeta potential amounted to 22.6 mV in data set [1] (setting [5]); 20.1 mV in data set [1] (setting [6]); 31.0 mV in data set [1] (1.25 μM in PBS from DMSO stock); 51.3 mV in data set [1] (2.5 μM in PBS from DMSO stock); 2.7 mV in data set [1] (3.75 μM in PBS from DMSO stock); 0.0 mV in data set [1] (5 μM in PBS from DMSO stock). In addition, the PDI is listed as 0.0186 in data set [1] (0.3125 μM in PBS), 0.0159 in data set [1] (0.625 μM in PBS), 0.0354 in data set [1] (1.25 μM in PBS) and 0.0298 in data set [1] (5 μM in PBS). In addition, in data set [2], the “change of UV spectrum with increasing ratio of PBS” value is recorded as “did not cause much change”. For the same compound, the “Water Dispersibility” value in “Water dispersibility” is listed as “less than 0.6 mg/100 mL”. Further, the “TEAC from DMSO” value in data set [3] came out at 1.66. Moreover, the “TEAC from THF” value in data set [3] is recorded as 2.297. Also, in data set [4], the FRAP amounted to 0.189.
`COc1ccc2[nH]cc(CCNC(=O)CNC(=O)CCC(=O)O[C@@H]3CC(C)=C(/C=C/C(C)=C/C=C/C(C)=C/C=C/C=C(C)/C=C/C=C(C)/C=C/C(=O)[C@]4(C)C[C@@H](OC(=O)CCC(=O)NCC(=O)NCCc5c[nH]c6ccc(OC)cc56)CC4(C)C)C(C)(C)C3)c2c1` [Compound 17, Capsanthin-dimelatonin conjugate] gave a melting point of 130 to 131 °C. In data set [1] (setting [5]), the “mean size (hydrodynamic diameter)” value is 24.42 nm and the zeta potential was −31.0 mV. This compound also had a PDI in data set [1] (0.3125 μM in PBS) of 0.0408. In data set [1] (setting [6]), the “mean size (hydrodynamic diameter)” value came out at 43.47 nm and the zeta potential was −22.9 mV. For the same compound, the PDI in data set [1] (0.625 μM in PBS) is given as 0.1239. Besides, in data set [1] (1.25 μM in PBS from DMSO stock), the “mean size (hydrodynamic diameter)” value is recorded as 101.60 nm and the zeta potential was −21.1 mV. The PDI in data set [1] (1.25 μM in PBS) was found to be 0.1362. Moreover, in data set [1] (2.5 μM in PBS from DMSO stock), the “mean size (hydrodynamic diameter)” value is 226.30 nm and the zeta potential is reported as −22.2 mV. In data set [1] (2.5 μM in PBS), this compound gave a PDI of 0.1650. Moreover, in data set [1] (3.75 μM in PBS from DMSO stock), the “mean size (hydrodynamic diameter)” value is given as 58.55 nm and the zeta potential was −27.5 mV. For the same compound, in data set [1] (3.75 μM in PBS), the PDI is listed as 0.1693. Further, in data set [1] (5 μM in PBS from DMSO stock), the “mean size (hydrodynamic diameter)” value was found to be 236.60 nm and the zeta potential is listed as −27.0 mV. The PDI in data set [1] (5 μM in PBS) worked out at 0.1273. The “type of aggregates formed” value in data set [2] (from THF:aqueous solutions) is listed as “J-type (head-to-tail) aggregates”. For the same compound, the “change of UV spectrum with increasing ratio of PBS” value in data set [2] is recorded as “bathochromic shift”. Also, in data set [3], the “TEAC from DMSO” value is on record as 2.53 and the “TEAC from THF” value is given as 1.519. Besides, in data set [4], the FRAP came out at 0.629.
`COc1ccc2[nH]cc(CCNC(=O)CNC(=O)CCC(=O)OC/C(C)=C/C=C/C(C)=C/C=C/C=C(C)/C=C/C=C(C)/C=C/C3=C(C)CCCC3(C)C)c2c1` [Compound 18, 8′-Apo-β-carotenol-melatonin conjugate] had a melting point of 123 to 124 °C. For the same compound, in data set [1] (setting [5]), the “mean size (hydrodynamic diameter)” value is 148.60 nm and the zeta potential is recorded as −22.0 mV. This compound also registered a PDI in data set [1] (0.3125 μM in PBS) of 0.0199. In data set [1] (setting [6]), the “mean size (hydrodynamic diameter)” value was 212.00 nm and the zeta potential is on record as −22.8 mV. Further, the PDI in data set [1] (0.625 μM in PBS) is 0.0397. Moreover, in data set [1] (1.25 μM in PBS from DMSO stock), the “mean size (hydrodynamic diameter)” value is listed as 127.50 nm and the zeta potential is −24.5 mV. The compound also returned a PDI in data set [1] (1.25 μM in PBS) of 0.0726. Besides, in data set [1] (2.5 μM in PBS from DMSO stock), the “mean size (hydrodynamic diameter)” value is 93.29 nm and the zeta potential is −29.5 mV. For the same compound, the PDI in data set [1] (2.5 μM in PBS) was determined as 0.1229. Further, in data set [1] (3.75 μM in PBS from DMSO stock), the “mean size (hydrodynamic diameter)” value was found to be 182.80 nm and the zeta potential is recorded as −31.4 mV. This compound returned a PDI in data set [1] (3.75 μM in PBS) of 0.1662. Also, in data set [1] (5 μM in PBS from DMSO stock), the “mean size (hydrodynamic diameter)” value was 201.10 nm and the zeta potential is given as −37.5 mV. In data set [1] (5 μM in PBS), this compound registered a PDI of 0.1788. The “change of UV spectrum with increasing ratio of PBS” value in data set [2] is recorded as “did not cause much change”. Further, in data set [3], the “TEAC from DMSO” value stood at 3.00 and the “TEAC from THF” value was found to be 2.891. Also, the FRAP in data set [4] is listed as 0.123.
